Experimental data reported in ChEMBL document CHEMBL5365484, “Discovery and Characterization of Novel CNS-Penetrant GPR55 Agonists” (J Med Chem, 2023).
The source made the active and inactive calls. The rule behind the calls is not given here.

Key:
[1] = Metabolic stability in rat liver microsomes assessed as intrinsic clearance at 1 uM preincubated for 60 mins followed by NADPH addition and measured after 60 mins by LC-MS/MS analysis; format: ADME, Microsome; conditions: time 120 min, read-out: CLH
[2] = biological target: G-protein coupled receptor 55 (Homo sapiens, UniProt Q9Y2T6); assay: Agonist activity at human GPR55 expressed in human HEK293 cells assessed as effect on calcium flux incubated for 5 mins by FLIPR analysis; format: functional, cell-based
[3] = Agonist activity at rat GPR55 expressed in human HEK293 cells assessed as effect on calcium flux incubated for 5 mins by FLIPR analysis; conditions: HEK293, 5 min
Rattus norvegicus = assay: Effect on haloperidol-induced […] activity in Sprague-Dawley rat model assessed as locomotor activity at 3 mg/kg, po and measured after 60 mins; format: functional, organism-based
Striatal neuron = assay: Neurophysiological effect on Wistar rat Striatal neuron assessed as decrease in potential firing frequency at 1 uM and measured after 3 mins by Whole-cell patch clamp assay; format: functional, cell-based
[4] = Toxicity in Wistar rat Striatal neuron assessed as cell viability at 1 uM; format: cell-based

G-protein coupled receptor 55, sequence (Q9Y2T6 whole entry): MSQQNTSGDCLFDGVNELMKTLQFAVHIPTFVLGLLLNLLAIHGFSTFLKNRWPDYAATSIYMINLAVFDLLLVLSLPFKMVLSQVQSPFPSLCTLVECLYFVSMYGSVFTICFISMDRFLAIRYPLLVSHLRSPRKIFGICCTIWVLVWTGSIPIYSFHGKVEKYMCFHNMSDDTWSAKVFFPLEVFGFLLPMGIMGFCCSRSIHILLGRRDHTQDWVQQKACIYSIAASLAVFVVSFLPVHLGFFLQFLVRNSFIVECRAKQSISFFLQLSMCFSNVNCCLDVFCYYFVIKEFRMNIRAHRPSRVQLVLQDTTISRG

SMILES	microsomal CLint at 1 µM [1] [µL/min/mg]	EC50 [2] [nM]	EC50 [3] [nM]	further results
CCc1cncc(-c2cnc(N[C@H](C)c3ccc(F)cc3)cn2)c1	78	3.01	32.5	–
C[C@@H](Nc1ccc(-c2ccc3oc(=O)[nH]c3c2)cn1)c1ccc(F)cc1	–	573	2400	–
CCn1c(=O)c2c(nc(/C=C/c3ccc(OC)c(OC)c3)n2C)n(CC)c1=O	–	–	–	Activity (Rattus norvegicus): Active
C[C@@H](Nc1ccc(-c2ccc3oc(=O)n(C)c3c2)cn1)c1ccc(F)cc1	3.9	–	–	–
C[C@@H](Nc1ncc(-c2cncc(CC(F)(F)F)c2)nn1)c1ccc(F)cc1	6.4	–	–	–
C[C@@H](Nc1cnc(-c2cncc(CC(F)F)c2)cn1)c1ccc(F)cc1	16	0.439	4.13	Activity (Striatal neuron): Active; Activity [4]: Non-Toxic

Now from value to compound, other results behind:

microsomal CLint at 1 µM [1] [µL/min/mg]	EC50 [2] [nM]	EC50 [3] [nM]	SMILES	further results
48	–	–	CCc1cncc(-c2ccc(N[C@H](C)c3ccc(F)cc3)nc2)c1	–
234	–	–	Cc1cncc(-c2ccc(N[C@H](C)c3ccc(F)cc3)nc2)c1	–
–	427	3510	C[C@@H](Nc1ccc(-c2cnn(C)c2)cn1)c1ccc(F)cc1	–
5.2	–	–	C[C@@H](Nc1ccc(-c2cncc(C(F)(F)F)c2)cn1)c1ccc(F)cc1	–
10	13.8	514	C[C@@H](Nc1ccc(-c2cncc(C3CC3)c2)cn1)c1ccc(F)cc1	–
2	–	–	C[C@@H](Nc1ccc(-c2cncc(S(C)(=N)=O)c2)cn1)c1ccc(F)cc1 (stereo not given in full)	–
3.8	85.1	716	C[C@@H](Nc1ccc(-c2cncc(S(C)(=O)=O)c2)cn1)c1ccc(F)cc1	–
